# Data from paper PMC6185871, “Discovery of super soft-drug modulators of sphingosine-1-phosphate receptor 1” (Bioorganic & Medicinal Chemistry Letters, 2018).
# Legend:
# [1] = target: T1, S1PR1 (Homo sapiens, UniProt P21453); assay: PathHunter CHO-K1 EDG1 β-Arrestin recruitment assay; assay type: cell-based
# T1 construct: host or cells: CHO-K1 (PathHunter EDG1 β-Arrestin cell line)
# Description: (§1) We selected human plasma stability as a model for human blood metabolism. […] S1PR1 activity was measured using a PathHunter β-Arrestin recruitment assay.[23]
# [23] The PathHunter® CHO‐K1 EDG1 β‐Arrestin Cell Line (Discoverx) was used to assess agonist activity of the compounds. Briefly, compound at 5× desired concentration was added to cells and incubated at 37 °C for 90 min. Assay signal was generated through a single addition of PathHunter Detection reagent cocktail, followed by a one hour incubation at room temperature. Microplates were read following signal generation with a PerkinElmer Envision instrument for chemiluminescent signal detection. Percentage activity was calculated using the following formula: % Activity = 100% × (mean RLU of test sample − mean RLU of vehicle control)/(mean MAX control ligand − mean RLU of vehicle control).
# [2] = Chromatographic hydrophobicity index (CHI) logD by reverse-phase HPLC; assay type: physicochemical
# [3] = Kinetic aqueous solubility by laser nephelometry; assay type: physicochemical
# [4] = in vitro; assay type: in vitro ADME, human; conditions: for half-life: human, plasma
# Description: as §1
# [5] = Human skin S9 stability; assay type: in vitro ADME; conditions: human skin S9 fraction, skin S9 over 180 mins in the presence of enzymatic cofactors
# Text: It may be that the esterases responsible for the metabolism of 12f are present in both human plasma and skin S9 fraction or that skin and plasma esterases have similar substrate affinities.
# [6] = system: plaque psoriasis; set-up: method as in PMID 25127208; conditions: oral, phase II clinical trial of psoriasis; cited from earlier work
# [7] = system: Langerhans cells migrating to the lymph node; set-up: method as in PMID 19194476; conditions: mice, topical application; cited from earlier work
# [8] = PathHunter β-Arrestin, n of 2, geometric mean, range in brackets
# T1 sequence (P21453 whole entry): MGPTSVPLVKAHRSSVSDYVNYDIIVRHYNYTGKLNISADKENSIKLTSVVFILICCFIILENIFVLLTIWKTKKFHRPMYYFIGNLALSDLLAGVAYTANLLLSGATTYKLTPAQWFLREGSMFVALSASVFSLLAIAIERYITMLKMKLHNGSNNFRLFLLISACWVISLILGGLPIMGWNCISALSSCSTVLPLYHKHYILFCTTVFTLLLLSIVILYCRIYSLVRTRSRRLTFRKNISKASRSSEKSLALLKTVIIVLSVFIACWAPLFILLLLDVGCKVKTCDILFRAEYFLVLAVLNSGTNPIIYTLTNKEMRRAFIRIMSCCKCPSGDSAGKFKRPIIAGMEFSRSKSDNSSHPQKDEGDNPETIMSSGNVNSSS
SMILES,"S1PR1 pIC50 [1, 8]",CHI logD [2],Kinetic solubility [3] [µM],half-life [4] [h],further results
CCC/N=C1\S/C(=C\c2ccc(C(=O)O)cc2)C(=O)N1c1ccccc1C [Compound 4a],<6 (0),1.0,163,–,–
CCC/N=C1\S/C(=C\c2ccc(C(=O)OC)c(Cl)c2)C(=O)N1c1ccccc1C [Compound 5a],8.6 (0.1),>4.4,39,> 3,improvement in S1PR1 activity compared to 5b ([1]; compared to 5b): 100 fold
CCC/N=C1\S/C(=C\c2ccc(C(=O)OC)cc2)C(=O)N1c1ccccc1C [Compound 5b],6.5 (0),>4.4,28,> 3,–
CCC/N=C1\S/C(=C\c2ccc(C(=O)OCCO)cc2)C(=O)N1c1ccccc1C [Compound 5c],6.9 (0),3.4,–,> 3,–
CCC/N=C1\S/C(=C\c2ccc(C(=O)NCCO)cc2)C(=O)N1c1ccccc1C [Compound 5d],7.0 (0),2.3,>250,> 3,–
CCC/N=C1\S/C(=C\c2ccc(OC[C@H](O)CO)c(Cl)c2)C(=O)N1c1ccccc1O [Compound 6],–,–,–,–,"IC50 ([1]; PathHunter β-Arrestin, n of 2, geometric mean, range in brackets, read-out: S1PR1 pIC50 (converted)): 12.6 nM"
CCC/N=C1\S/C(=C\c2ccc(C(=O)O)cc2)C(=O)N1c1ccccc1O [Compound 11],–,–,–,> 3,S1PR1 modulator activity (in words) [1]: inactive
"CCC/N=C1\S/C(=C\c2ccc(OC[C@H](O)CO)c(Cl)c2)C(=O)N1c1ccccc1C [Ponesimod, ponesimod, reference compound]",7.9 (0),3.1,110,> 3,systemic side effects observed [6]: lymphopenia and transient bradycardia
CCCCCCCCc1ccc(CCC(N)(CO)CO)cc1 [fingolimod],–,–,–,–,number of Langerhans cells migrating to the lymph node [7]: reduction

# More lines, main results first:
"S1PR1 pIC50 [1, 8]",CHI logD [2],Kinetic solubility [3] [µM],half-life [4] [h],SMILES,further results
–,1.9,–,> 3,CCC/N=C1\S/C(=C\c2ccc(C(=O)NCC(=O)N(C)C)cc2)C(=O)N1c1ccccc1O [Compound 12a],metabolism in human plasma stability assay (in words) [4]: lack of metabolism
–,2.3,183,> 3,CCC/N=C1\S/C(=C\c2ccc(C(=O)OCCCO)cc2)C(=O)N1c1ccccc1O [Compound 12b],–
–,1.8,>250,> 3,CCC/N=C1\S/C(=C\c2ccc(C(=O)OCC(O)CO)cc2)C(=O)N1c1ccccc1O (stereo not drawn) [Compound 12c],–
–,3.0,117,3,CCC/N=C1\S/C(=C\c2ccc(C(=O)OCCN3CCOCC3)cc2)C(=O)N1c1ccccc1O [Compound 12d],half-life at 3 h [5]: 2.53 h
–,2.8,79,1.02,CCC/N=C1\S/C(=C\c2ccc(C(=O)OCC3COC(=O)O3)cc2)C(=O)N1c1ccccc1O (stereo not drawn) [Compound 12e],metabolism in human plasma stability assay (in words) [4]: did not show sufficient clearance; half-life at 3 h [5]: 0.667 h
–,3.3,79,0.15,CCC/N=C1\S/C(=C\c2ccc(C(=O)OCc3oc(=O)oc3C)cc2)C(=O)N1c1ccccc1O [Compound 12f],metabolism in human plasma stability assay (in words) [4]: rapidly degraded; half-life at 3 h [5]: 0.383 h; S1PR1 modulator activity (in words) [1]: inactive
–,3.2,–,> 3,CCC/N=C1\S/C(=C\c2ccc(CC(=O)OC)cc2)C(=O)N1c1ccccc1O [Compound 15a],–
–,3.5,79,> 3,CCC/N=C1\S/C(=C\c2ccc(CCC(=O)OC)cc2)C(=O)N1c1ccccc1O [Compound 15b],–
